Experimental data taken from PubChem BioAssay AID2060885 (Molecular Pharmacology Branch, DTP, NCI, 2025).

Tested on: NCI-H23 complex spheroids with HUVEC/MSC, viability
Assay: Anticancer human tumor NCI-H23 cell line growth inhibition [RAS];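 further: spheroids exposed to compound for 7 days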;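 on viability, T/C: 100% = DMSO vehicle control viability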
Details: for IC50: curve of first compound; for viability, T/C: stronger effect = lower value
Summary of the method: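 Tumour cells grown as complex spheroids with HUVEC endothelial cells and mesenchymal stem cells, treated with RAS pathway inhibitor combinations. Each agent spans half-log steps from near clinical Cmax, or 10 microM where Cmax is unknown.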

[1] = second compound 0.000949 µM, first compound 0.0316 µM
[2] = second compound 0.000949 µM, first compound 0.1 µM
[3] = second compound 0.000949 µM, first compound 0.316 µM
[4] = second compound 0.000949 µM, first compound 1 µM
[5] = second compound 0.003 µM, first compound 0.0316 µM
[6] = second compound 0.003 µM, first compound 0.1 µM
[7] = second compound 0.003 µM, first compound 0.316 µM
[8] = second compound 0.003 µM, first compound 1 µM
[9] = second compound 0.00949 µM, first compound 0.0316 µM
[10] = second compound 0.00949 µM, first compound 0.1 µM
[11] = second compound 0.00949 µM, first compound 0.316 µM
[12] = second compound 0.00949 µM, first compound 1 µM
[13] = second compound 0.03 µM, first compound 0.0316 µM
[14] = second compound 0.03 µM, first compound 0.1 µM
[15] = second compound 0.03 µM, first compound 0.316 µM
[16] = second compound 0.03 µM, first compound 1 µM
[17] = second compound 0.0949 µM, first compound 0.0316 µM
[18] = second compound 0.0949 µM, first compound 0.1 µM
[19] = second compound 0.0949 µM, first compound 0.316 µM
[20] = second compound 0.0949 µM, first compound 1 µM
[21] = second compound 0.3 µM, first compound 0.0316 µM
[22] = second compound 0.3 µM, first compound 0.1 µM
[23] = second compound 0.3 µM, first compound 0.316 µM
[24] = second compound 0.3 µM, first compound 1 µM

## C=CC(=O)N1CCN(c2nc(OCC3CCCN3C)nc3c(F)c(-c4nc(N)cc(C)c4C(F)(F)F)c(Cl)cc23)C(C)C1 (stereo unspecified) + C#Cc1c(F)ccc2cc(O)cc(-c3ncc4c(N5CC6CCC(C5)N6)nc(OCC56CCCN5CC(F)C6)nc4c3F)c12
Second compound 0.0316 µM
  IC50: 11.5 nM
Second compound 0.1 µM
  IC50: 19.2 nM
Second compound 0.316 µM
  IC50: 24.2 nM
Second compound 1 µM
  IC50: 13.8 nM
Second compound 3.16 µM
  IC50: 11.3 nM
Second compound 10 µM
  IC50: < 3.16 nM
Second compound 0.0316 µM, first compound 0.00316 µM
  viability, T/C: 72.4%
Second compound 0.0316 µM, first compound 0.01 µM
  viability, T/C: 52.6%
Second compound 0.0316 µM, first compound 0.0316 µM
  viability, T/C: 40.5%
Second compound 0.0316 µM, first compound 0.1 µM
  viability, T/C: 35.5%
Second compound 0.0316 µM, first compound 0.316 µM
  viability, T/C: 38%
Second compound 0.0316 µM, first compound 1 µM
  viability, T/C: 36.3%
Second compound 0.1 µM, first compound 0.00316 µM
  viability, T/C: 80.7%
Second compound 0.1 µM, first compound 0.01 µM
  viability, T/C: 58.2%
Second compound 0.1 µM, first compound 0.0316 µM
  viability, T/C: 45.3%
Second compound 0.1 µM, first compound 0.1 µM
  viability, T/C: 35.7%
Second compound 0.1 µM, first compound 0.316 µM
  viability, T/C: 30.3%
Second compound 0.1 µM, first compound 1 µM
  viability, T/C: 42.2%
Second compound 0.316 µM, first compound 0.00316 µM
  viability, T/C: 65.2%
Second compound 0.316 µM, first compound 0.01 µM
  viability, T/C: 61.3%
Second compound 0.316 µM, first compound 0.0316 µM
  viability, T/C: 46.5%
Second compound 0.316 µM, first compound 0.1 µM
  viability, T/C: 37.9%
Second compound 0.316 µM, first compound 0.316 µM
  viability, T/C: 35%
Second compound 0.316 µM, first compound 1 µM
  viability, T/C: 37.2%
Second compound 1 µM, first compound 0.00316 µM
  viability, T/C: 83.2%
Second compound 1 µM, first compound 0.01 µM
  viability, T/C: 54.5%
Second compound 1 µM, first compound 0.0316 µM
  viability, T/C: 37.7%
Second compound 1 µM, first compound 0.1 µM
  viability, T/C: 39.2%
Second compound 1 µM, first compound 0.316 µM
  viability, T/C: 39.5%
Second compound 1 µM, first compound 1 µM
  viability, T/C: 37.7%
Second compound 3.16 µM, first compound 0.00316 µM
  viability, T/C: 59.9%
Second compound 3.16 µM, first compound 0.01 µM
  viability, T/C: 55.9%
Second compound 3.16 µM, first compound 0.0316 µM
  viability, T/C: 38.4%
Second compound 3.16 µM, first compound 0.1 µM
  viability, T/C: 42.3%
Second compound 3.16 µM, first compound 0.316 µM
  viability, T/C: 39.8%
Second compound 3.16 µM, first compound 1 µM
  viability, T/C: 38.5%
Second compound 10 µM, first compound 0.00316 µM
  viability, T/C: 35.7%
Second compound 10 µM, first compound 0.01 µM
  viability, T/C: 39.6%
Second compound 10 µM, first compound 0.0316 µM
  viability, T/C: 42.4%
Second compound 10 µM, first compound 0.1 µM
  viability, T/C: 32.3%
Second compound 10 µM, first compound 0.316 µM
  viability, T/C: 30.4%
Second compound 10 µM, first compound 1 µM
  viability, T/C: 33.5%

## CCC(CC)c1cc(NC2CCC(N)C2)n2nccc2n1 (stereo unspecified) + CCn1c(-c2cc(N3CCN(C)CC3)cnc2C(C)OC)c2c3cc(ccc31)-c1csc(n1)CC(NC(=O)C1CC1C)C(=O)N1CCCC(N1)C(=O)OCC(C)(C)C2
Second compound 0.000949 µM
  IC50: < 31.6 nM
Second compound 0.003 µM
  IC50: < 31.6 nM
Second compound 0.00949 µM
  IC50: < 31.6 nM
Second compound 0.03 µM
  IC50: < 31.6 nM
Second compound 0.0949 µM
  IC50: < 31.6 nM
Second compound 0.3 µM
  IC50: < 31.6 nM
[1]
  viability, T/C: 46.5%
[2]
  viability, T/C: 50.7%
[3]
  viability, T/C: 40.9%
[4]
  viability, T/C: 41.2%
Second compound 0.000949 µM, first compound 3.16 µM
  viability, T/C: 2.33%
Second compound 0.000949 µM, first compound 10 µM
  viability, T/C: 0.49%
[5]
  viability, T/C: 37.7%
[6]
  viability, T/C: 33.8%
[7]
  viability, T/C: 34%
[8]
  viability, T/C: 36.4%
Second compound 0.003 µM, first compound 3.16 µM
  viability, T/C: 2.67%
Second compound 0.003 µM, first compound 10 µM
  viability, T/C: 0.37%
[9]
  viability, T/C: 36.3%
[10]
  viability, T/C: 33.7%
[11]
  viability, T/C: 34.2%
[12]
  viability, T/C: 35.7%
Second compound 0.00949 µM, first compound 3.16 µM
  viability, T/C: 1.63%
Second compound 0.00949 µM, first compound 10 µM
  viability, T/C: 0.42%
[13]
  viability, T/C: 30.1%
[14]
  viability, T/C: 24.9%
[15]
  viability, T/C: 31.1%
[16]
  viability, T/C: 28.3%
Second compound 0.03 µM, first compound 3.16 µM
  viability, T/C: 0.59%
Second compound 0.03 µM, first compound 10 µM
  viability, T/C: 0.54%
[17]
  viability, T/C: 22.9%
[18]
  viability, T/C: 23.2%
[19]
  viability, T/C: 24.7%
[20]
  viability, T/C: 25.4%
Second compound 0.0949 µM, first compound 3.16 µM
  viability, T/C: 0.87%
Second compound 0.0949 µM, first compound 10 µM
  viability, T/C: 0.64%
[21]
  viability, T/C: 19%
[22]
  viability, T/C: 20.5%
[23]
  viability, T/C: 22.4%
[24]
  viability, T/C: 19%
Second compound 0.3 µM, first compound 3.16 µM
  viability, T/C: 1.45%
Second compound 0.3 µM, first compound 10 µM
  viability, T/C: 0.47%

## CCN1CCN(Cc2ccc(Nc3ncc(F)c(-c4cc(F)c5nc(C)n(C(C)C)c5c4)n3)nc2)CC1 + CCn1c(-c2cccnc2C(C)OC)c2c3cc(ccc31)N1CCOC(CC(NC(=O)C(C(C)C)N(C)C(=O)C3(F)CCN(C(=O)C#CC(C)(C)N(C)C)CC3)C(=O)N3CCCC(N3)C(=O)OCC(C)(C)C2)C1
Second compound 0.000949 µM
  IC50: < 3.16 nM
Second compound 0.003 µM
  IC50: < 3.16 nM
Second compound 0.00949 µM
  IC50: < 3.16 nM
Second compound 0.03 µM
  IC50: < 3.16 nM
Second compound 0.0949 µM
  IC50: < 3.16 nM
Second compound 0.3 µM
  IC50: < 3.16 nM
Second compound 0.000949 µM, first compound 0.00316 µM
  viability, T/C: 27.6%
Second compound 0.000949 µM, first compound 0.01 µM
  viability, T/C: 26.4%
[1]
  viability, T/C: 14%
[2]
  viability, T/C: 15.9%
[3]
  viability, T/C: 14.6%
[4]
  viability, T/C: 10.6%
Second compound 0.003 µM, first compound 0.00316 µM
  viability, T/C: 28.6%
Second compound 0.003 µM, first compound 0.01 µM
  viability, T/C: 20.8%
[5]
  viability, T/C: 16.3%
[6]
  viability, T/C: 15%
[7]
  viability, T/C: 12.9%
[8]
  viability, T/C: 10.8%
Second compound 0.00949 µM, first compound 0.00316 µM
  viability, T/C: 26.9%
Second compound 0.00949 µM, first compound 0.01 µM
  viability, T/C: 21.9%
[9]
  viability, T/C: 16%
[10]
  viability, T/C: 14.2%
[11]
  viability, T/C: 12.3%
[12]
  viability, T/C: 11.5%
Second compound 0.03 µM, first compound 0.00316 µM
  viability, T/C: 30.6%
Second compound 0.03 µM, first compound 0.01 µM
  viability, T/C: 21.5%
[13]
  viability, T/C: 18%
[14]
  viability, T/C: 12.5%
[15]
  viability, T/C: 11.2%
[16]
  viability, T/C: 13.2%
Second compound 0.0949 µM, first compound 0.00316 µM
  viability, T/C: 23.4%
Second compound 0.0949 µM, first compound 0.01 µM
  viability, T/C: 22.1%
[17]
  viability, T/C: 15.8%
[18]
  viability, T/C: 13.2%
[19]
  viability, T/C: 10.2%
[20]
  viability, T/C: 14.9%
Second compound 0.3 µM, first compound 0.00316 µM
  viability, T/C: 22.2%
Second compound 0.3 µM, first compound 0.01 µM
  viability, T/C: 19.3%
[21]
  viability, T/C: 14.2%
[22]
  viability, T/C: 12.1%
[23]
  viability, T/C: 12%
[24]
  viability, T/C: 14.2%
